Here are results for nine compounds from PMC12291851, “Hydrogen Sulfide (H2S)-Donating Formyl Peptide Receptor 2 (FPR2) Agonists: Design, Synthesis, and Biological Evaluation in Primary Mouse Microglia Culture” (Antioxidants, 2025).

Data set [1] concerns organotypic hippocampal cultures. On the set-up: method as in PMID 37775304, PMID 37947648. Particulars: nanomolar doses; ref [24],[25]; cited from earlier work.
Data set [2] is described as follows: Cell-free MTT-based H2S release assay. It counts as physicochemical. The conditions noted are these: 24 h incubation in MEM with 10% DMSO. The procedure: Solutions at different concentrations of each compound in 100 µL of serum-free MEM/10% DMSO with 0.5 mg/mL 3-(4,5-dimethylthiazol-2yl)-2,5-diphenyltetrazolium bromide (MTT) were incubated for 5 h or 24 h in a humidified incubator at 37 °C in 5% CO2 atmosphere. The experimental design comprised blank wells containing only medium and MTT, and a H2S calibration curve obtained by incubating nine solutions at decreasing concentrations (100 µM to 0.01 µM) of NaHS in medium and MTT. At the end of incubation time, the supernatant was removed, the […] crystals were dissolved in 100 µL DMSO/EtOH (1:1 v/v), and absorbance values were read using a Victor 3 plate reader (PerkinElmer, Shelton, CT, USA) at 570 nm. H2S values are expressed as mean ± S.E.M. of the results of three independent experiments conducted in triplicate, and were plotted using GraphPad Prism 7.
To decipher such results and considering the redox properties of H2S, we questioned if H2S released by our compounds in the culture media could interfere with the conversion of MTT (3-[4,5-dimethylthiazol-2-yl]-2,5-diphenyl tetrazolium bromide) to formazan, which is usually related to cell viability. Thus, we ran cell-free experiments in which MTT was used as the substrate to capture the reductive action of H2S. We found, in agreement with Gerő et al., that some of our thioureas and thioamides reduced MTT to formazan after 24 h incubation in MEM with 10% DMSO.

Data set [3] has as its system HepG2 hepatocarcinoma cells. In words: MTT cell viability assay, MTT added directly to treated media. It counts as cell-based, human. The conditions noted are these: 5% DMSO. The procedure: The cytotoxicity of our compounds was assessed using the well-established MTT assay. HepG2 hepatocarcinoma cells were cultured in Minimum Essential Medium (MEM) (Euroclone, Pero, Italy), supplemented with 10% fetal bovine serum (Euroclone, Pero, Italy), 100 U/mL penicillin, and 100 µg/mL streptomycin sulfate, at 37 °C in a humidified incubator in 5% CO2 atmosphere. For the MTT assays, these cells were cultured up to about 90% confluence and were then seeded at a concentration of 20,000 cells per well in 96-well plates. After 24 h, the culture medium was replaced with solutions at various concentrations of each compound in MEM/DMSO 5% (v/v). Control wells were incorporated in the experimental design, consisting of vehicle (MEM/DMSO 5%) and pure medium controls.
In the first round of cytotoxicity assays, 0.5 mg/mL MTT was added to each well 2 or 24 h from treatment and left to incubate for 3–5 h. In the second round of cytotoxicity assays, at 2 or 24 h after treatment, treated media were removed, the cells were washed once in PBS, and fresh medium containing 0.5 mg/mL MTT was added to each well and left to incubate for 3–5 h.
Subsequently, the supernatant was removed, and the formazan crystals were dissolved in DMSO/EtOH 1:1 (100 µL/well). Absorbance values were then recorded from each well using a Victor 3 plate reader (PerkinElmer, Shelton, CT, USA) at 570 nm. All presented data were obtained from 3 to 5 experiments performed in triplicate. Cell viability values are expressed as mean ± S.E.M. and were plotted using GraphPad Prism 7.
Next, we assessed H2S release in a biological environment using human hepatocarcinoma HepG2 cells as a model. The intracellular release of H2S was detected with the WSP-1 probe, a turn-on fluorescent probe that selectively and irreversibly reacts with H2S. Considering that a high micromolar concentration of the test compounds is required to obtain a robust fluorescent signal, we first evaluated the compounds’ cytotoxicity after 2 h and 24 h of incubation with the MTT assay in HepG2 cells. […] We accounted for this by adding a vehicle control with 5% DMSO and a control without DMSO to our experimental design.

A further data set has as its system HepG2 cells. Kind of data set: Intracellular H2S release with WSP-1 probe. It counts as cell-based, human. The procedure: All cell culture reagents were purchased from S.I.A.L. S.r.l. (Rome, Italy). WSP-1 (Washington State Probe-1, 3′-methoxy-3-oxo-3H-spiro[isobenzofuran-1,9′-xanthen]-6′-yl 2-(pyridine-2-yl-disulfanyl benzoate), was obtained from Cayman Chemical (Cayman, Ann Arbor, MI, USA). HepG2, human hepatocellular carcinoma cells, was obtained from American Type Culture Collection (ATCC, Bethesda, MD, USA). Human hepatocellular carcinoma cells (HepG2) were cultured in Minimum Essential Eagle’s Medium. This medium was supplemented with 10% (v/v) Fetal Bovine Serum, 1% (v/v) Glutamine and 1% (v/v) Penicillin-Streptomycin, 1% non-essential amino acids. Cells were cultivated at 37 °C with 5% CO2 at saturated humidity.
These experiments were carried out as already described. HepG2 cells were cultured up to about 90% confluence, and 24 h before the experiment cells were seeded into a 96-well flat bottom black plate (50,000 cells per well). After 24 h, the medium was replaced and cells were incubated at 37 °C for 30 min with a 10 mM solution of the fluorescent WSP-1 probe, which is highly sensitive for H2S detection. After incubation, the supernatant was removed and replaced with different concentrations (100, 200, and 300 µM) of the tested compounds dissolved in HBSS buffer. […] ADT 100 µM was used as a slow H2S-donor reference compound. Data were analyzed by one-way ANOVA for repeated measures, followed by post hoc Bonferroni’s multiple comparison test. Results are expressed as mean ± SEM of 3 independent experiments in triplicate. Statistical significance was accepted at a level of p < 0.05.
Next, we assessed the intracellular H2S release of thioureas and thioamides in HepG2 cells. The compounds were tested at different concentrations (100–300 μM) to evaluate if the release was dose-dependent. We also assayed ADT-OH and TIA as reference H2S-donors, and 3a as a negative control. The results were normalized to the fluorescence signal obtained with 100 μM ADT-OH.

Data set [4] has as its target T1, FPR2 (Homo sapiens, UniProt P25090).
T1 sequence (P25090 1-351): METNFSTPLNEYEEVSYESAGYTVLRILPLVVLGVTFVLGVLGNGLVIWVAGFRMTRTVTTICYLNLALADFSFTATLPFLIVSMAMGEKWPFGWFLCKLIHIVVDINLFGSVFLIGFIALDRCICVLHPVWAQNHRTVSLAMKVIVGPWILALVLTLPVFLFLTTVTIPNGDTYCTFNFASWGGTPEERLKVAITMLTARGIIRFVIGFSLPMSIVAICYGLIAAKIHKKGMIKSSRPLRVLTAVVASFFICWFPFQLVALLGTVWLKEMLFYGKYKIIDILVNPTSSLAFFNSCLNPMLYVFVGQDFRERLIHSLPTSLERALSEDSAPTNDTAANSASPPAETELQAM
In words: Ca2+ mobilization (agonist activity) in FPR2-HL60 cells. The conditions noted are these: for fold less potent at FPR2 than the corresponding urea/amide: ratio of FPR2 EC50 vs 3b, 3c or 4b; for Ca2+ Mobilization HL60-FPR2 Efficacy: response to 5 nM WKYMVM = 100%. Background: A change in cytosolic calcium serves as a functional read-out for many receptors and channels.

For data set [5], the target named is T1, FPR2. In words: cell-based.
Data set [6] addresses T1, FPR2. Kind of data set: FPR2 desensitization: inhibition of WKYMVM-induced Ca2+ mobilization in FPR2-HL60 cells. Particulars: 10 min preincubation, then 5 nM WKYMVM. On the set-up: expressed in transfected cells; host or cells: HL-60 cells. It counts as cell-based. The text has this:
Finally, we assessed the ability of compounds to induce receptor desensitization at FPR2 by measuring the inhibition of Ca^2+ mobilization induced by subsequent treatment with a standard FPR2 agonist (IC50, Table 1) because FPR2 undergoes homologous desensitization after stimulation with agonists, resulting in functional antagonism (IC50, Table 1). […] We also evaluated the effects of the thiourea and thioamide derivatives on Ca^2+ mobilization in FPR1-HL60-transfected cells after stimulation with the FPR1 agonist (IC50, Table 1).

The mark [7] stands for this setting: HepG2, tested concentrations 100-300 μM, 60 min.

For `N#Cc1ccc(C[C@H](NC(=O)Nc2ccc(F)cc2)C(=O)N2CCc3ccccc32)cc1` [3b, (S)-1-[3-(4-cyanophenyl)-1-(indolin-1-yl)-1-oxopropan-2-yl]-3-(4-fluorophenyl)urea], in data set [1], the “protective and anti-inflammatory properties” value is “beneficial protective and anti-inflammatory properties at nanomolar doses”.

On to `N#Cc1ccc(C[C@H](NC(=S)Nc2ccc(F)cc2)C(=O)NCC2(c3ccc(F)c(Cl)c3)CC2)cc1` [5a, (S)-N-[[1-(3-Chloro-4-fluorophenyl)cyclopropyl]methyl]-3-(4-cyanophenyl)-2-[3-(4-fluorophenyl)thioureido]propanamide], for which, in data set [2], the “absorbance signal (MTT reduction to formazan) indicative of H2S release” value is given as “did not give off any detectable absorbance signal”. Further, the “MTT absorbance signal vs control” value is “pronounced signal” in data set [3] (HepG2, 2 h incubation) and “higher than the control” in data set [3] (HepG2, 24 h incubation). Also, the “intracellular H2S release, WSP-1 fluorescence signal vs vehicle” value (“intracellular H2S release … vs vehicle” for short) in the data set with HepG2 cells (setting [7]) is recorded as “comparable to vehicle”. On FPR2 [4] (HL-60 cells transfected with human FPR2), the “Ca2+ Mobilization HL60-FPR2 EC50” value is “inactive”.

A word on the EC50: it is the concentration giving half of the maximal effect. For the compound `N#Cc1ccc(C[C@H](NC(=S)Nc2ccc(F)cc2)C(=O)N2CCc3ccccc32)cc1` [5b, (S)-1-[3-(4-Cyanophenyl)-1-(indolin-1-yl)-1-oxopropan-2-yl]-3-(4-fluorophenyl)thiourea], the “absorbance signal (MTT reduction to formazan) indicative of H2S release” value in data set [2] is given as “significant absorbance signal with slight dose-dependent effects”. Besides, the EC50 at FPR2 [5] was determined as 2200 ± 700 nM. Also, on FPR2 [4], the “fold less potent at FPR2 than the corresponding urea/amide” value is reported as “more than 10 fold” and the “Ca2+ Mobilization HL60-FPR2 Efficacy” value is given as 65%. Moreover, the “Ca2+ Mobilization HL60-FPR2 IC50 (FPR2 desensitization)” value (shortened to “Ca2+ Mobilization HL60-FPR2 IC50”) at FPR2 [6] was “inactive”.

Regarding `N#Cc1ccc(C[C@H](NC(=S)Nc2ccc(F)cc2)C(=O)N2CCc3ccc(F)cc32)cc1` [5c], in data set [2], the “absorbance signal (MTT reduction to formazan) indicative of H2S release” value is given as “significant absorbance signal with slight dose-dependent effects”. For the same compound, the “MTT absorbance signal vs control” value in data set [3] (HepG2, 2 h incubation) is “pronounced signal”. Further, the “intracellular H2S release … vs vehicle” value in the data set with HepG2 cells (HepG2, at 200 and 300 μM) was “statistically significant increase in the fluorescent signal”. For the same compound, the half-maximal effective concentration (EC50) on FPR2 [5] came to 12000 ± 32000 nM. For the same compound, at FPR2 [4], the “fold less potent at FPR2 than the corresponding urea/amide” value was “more than 10 fold” and the “Ca2+ Mobilization HL60-FPR2 Efficacy” value is 105%. Moreover, the “Ca2+ Mobilization HL60-FPR2 IC50” value at FPR2 [6] was “inactive”.

By IC50 is commonly meant the midpoint of a concentration-inhibition curve. On to `N#Cc1ccc(C[C@H](NC(=S)Nc2ccc(Br)cc2)C(=O)N2CCc3ccccc32)cc1` [6b, (S)-1-(4-Bromophenyl)-3-[3-(4-cyanophenyl)-1-(indolin-1-yl)-1-oxopropan-2-yl]thiourea], for which the “MTT absorbance signal vs control” value in data set [3] (HepG2, 2 h incubation) is “pronounced signal”. In data set [3] (HepG2, 24 h incubation), the “MTT absorbance signal vs control” value is listed as “higher than the control”. The “intracellular H2S release … vs vehicle” value in the data set on HepG2 cells (HepG2, at 200 and 300 μM) is listed as “statistically significant increase in the fluorescent signal”. The same compound showed an EC50 at FPR2 [5] of 1700 ± 700 nM. Further, on FPR2 [4], the “fold less potent at FPR2 than the corresponding urea/amide” value was “more than 10 fold” and the “Ca2+ Mobilization HL60-FPR2 Efficacy” value amounted to 65%. The IC50 on FPR2 [6] came out at 2200 ± 400 nM.

`N#Cc1ccc(C[C@H](NC(=O)Nc2ccc(F)cc2)C(=S)NCC2(c3ccc(F)c(Cl)c3)CC2)cc1` [7a, (S)-N-[[1-(3-Chloro-4-fluorophenyl)cyclopropyl]methyl]-3-(4-cyanophenyl)-2-[3-(4-fluorophenyl)ureido]propanethioamide]: in data set [2], the “absorbance signal (MTT reduction to formazan) indicative of H2S release” value is “below the assay’s detection limit”. In addition, the “intracellular level of H2S vs reference H2S donor ADT” value in the data set with HepG2 cells (HepG2, at 200 and 300 μM, p < 0.001 vs. ADT) is listed as “more than the reference H2S donor ADT”. Besides, the “intracellular H2S release … vs vehicle” value in the data set on HepG2 cells (setting [7]) was “significant fluorescence signal increase at all tested concentrations”. In addition, the “levels of H2S release in HepG2 cells” value in the data set on HepG2 cells (summary of WSP-1 results) is given as “very high levels of H2S release”. This compound also came in with an EC50 at FPR2 [5] of 2300 ± 800 nM. In addition, at FPR2 [4], the “Ca2+ Mobilization HL60-FPR2 Efficacy” value was found to be 145%. At FPR2 [6], the “Ca2+ Mobilization HL60-FPR2 IC50” value is given as “submicromolar concentration” and the concentration for half-maximal inhibition (IC50) is 300 ± 100 nM.

Take `O=c1cc(-c2cccc(O)c2)ss1` [ADT-OH, 5-(5-hydroxyphenyl)-3H-1,2-dithiol-3-one, reference compound]: in the data set on HepG2 cells (setting [7]), the “intracellular H2S release … vs vehicle” value is “statistically significant increase in fluorescence”.

Regarding `[Na+].[SH-]` [NaHS, sodium hydrogen sulfide, reference compound], the “absorbance signal (MTT reduction to formazan) indicative of H2S release” value in data set [2] is “strong dose-dependent signal”.

Take `NC(=O)c1ccc(O)cc1` [TIA, 4-hydroxybenzamide, reference compound]: the “intracellular H2S release … vs vehicle” value in the data set with HepG2 cells (HepG2, at 200 and 300 μM) is given as “statistically significant increase in fluorescence”.
